Measured values reported in patent US9067935B2 (Janssen Pharmaceutica, NV, priority 2010, dated 2015).
Where “and” joins values, the source holds several entries; their conditions need not be identical. Equal entries are not always repeated. Where two headings read alike, the source gives them in different places.

Molecular target: canine TRPM8 (Canis lupus familiaris, UniProt Q1A7N1)
Assay: In Vitro Canine TRPM8 Functional Assay (intracellular Ca2+ fluorescence, icilin challenge)
Format: cell-based
Settings: for IC50: icilin at ~80% maximal response
Description: The functional activity of compounds of the formula (I) was determined by measuring changes in intracellular calcium concentration using a Ca^2+-sensitive fluorescent dye. The changes in fluorescent signal were monitored by a fluorescence plate reader, either a FLIPR™ (Molecular Devices) or FDSS (Hamamatsu).
At 24 hrs prior to assay, HEK293 cells stably expressing canine TRPM8 were seeded in culture medium in black wall, clear-base poly-D-lysine coated 384-well plates (BD Biosciences, NJ, USA) and grown overnight in 5% CO2 at 37° C. On assay day, growth media was removed and cells were loaded with Calcium 3 Dye (Molecular Devices) for 35 min at 37° C., under 5% CO2 and then for 25 min at room temperature and atmosphere. Subsequently, cells were tested for agonist-induced increases in intracellular Ca^2+ levels using FLIPR™ or FDSS. Cells were challenged with a compound of the Formula (I) (at varying concentrations) and intracellular Ca^2+ was measured for 5 min prior to the addition of icilin to all wells to achieve a final concentration that produces approximately an 80% maximal response. EC50 or IC50 values for compounds of the present invention were determined from eight-point dose-response studies. Curves were generated using the average of quadruplicate wells for each data point.

[1] = HEK293 cells stably expressing canine TRPM8
[2] = HEK293, @ 0.2 μM, HEK293 cells stably expressing canine TRPM8, read-out: % Inh (%) @ 0.2 μM

Chain of canine TRPM8 (Q1A7N1 1-1104): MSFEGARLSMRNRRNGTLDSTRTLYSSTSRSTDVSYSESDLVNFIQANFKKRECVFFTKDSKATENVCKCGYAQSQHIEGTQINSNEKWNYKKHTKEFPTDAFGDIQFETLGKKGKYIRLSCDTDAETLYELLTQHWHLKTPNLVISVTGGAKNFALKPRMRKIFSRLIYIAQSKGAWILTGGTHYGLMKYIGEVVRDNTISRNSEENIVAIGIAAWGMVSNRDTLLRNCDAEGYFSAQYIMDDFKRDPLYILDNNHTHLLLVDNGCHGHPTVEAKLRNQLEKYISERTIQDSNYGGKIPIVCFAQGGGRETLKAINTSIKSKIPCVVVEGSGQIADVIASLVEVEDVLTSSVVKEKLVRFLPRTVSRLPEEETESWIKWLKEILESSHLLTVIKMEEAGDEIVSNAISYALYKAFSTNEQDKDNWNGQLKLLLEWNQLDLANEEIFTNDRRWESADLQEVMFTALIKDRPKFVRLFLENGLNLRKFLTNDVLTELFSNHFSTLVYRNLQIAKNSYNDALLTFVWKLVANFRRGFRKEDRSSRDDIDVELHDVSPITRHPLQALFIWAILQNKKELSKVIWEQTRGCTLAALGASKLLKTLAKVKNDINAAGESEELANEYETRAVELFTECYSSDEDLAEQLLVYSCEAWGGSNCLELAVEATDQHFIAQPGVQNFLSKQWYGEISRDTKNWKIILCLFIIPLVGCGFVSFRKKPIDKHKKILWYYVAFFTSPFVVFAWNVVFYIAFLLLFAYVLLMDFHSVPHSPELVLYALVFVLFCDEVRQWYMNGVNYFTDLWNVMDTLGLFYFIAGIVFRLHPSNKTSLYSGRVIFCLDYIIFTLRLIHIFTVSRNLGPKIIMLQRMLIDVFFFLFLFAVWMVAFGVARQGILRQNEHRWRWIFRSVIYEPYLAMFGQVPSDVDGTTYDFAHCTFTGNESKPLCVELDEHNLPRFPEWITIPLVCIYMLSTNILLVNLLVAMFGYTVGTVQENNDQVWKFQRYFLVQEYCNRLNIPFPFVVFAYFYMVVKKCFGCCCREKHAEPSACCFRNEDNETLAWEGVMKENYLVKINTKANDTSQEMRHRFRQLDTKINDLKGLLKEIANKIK

Structure (SMILES)	IC50 [1]	inhibition at 0.2 µM [2] [%]	inhibition at 0.2 µM (HEK293, read-out: % Inh (%) @ 0.2 μM) [%]
CS(=O)(=O)N(Cc1ccc(OC(F)(F)F)cc1)c1nc2ccccn2c1Br [Compound 4]	0.0167 µM	–	–
O=C(O)c1ccc(S(=O)(=O)N(Cc2ccc(OC(F)(F)F)cc2)c2nc3ccccn3c2Cl)cc1 [Compound 6]	–	–	102
O=S(=O)(c1ccccc1)N(Cc1ccc(OC(F)(F)F)cc1)c1nc2ccc(Cl)cn2c1Cl [Compound 7]	0.0298 µM	–	–
O=S(=O)(c1ccc(F)cc1)N(Cc1ccc(F)c(C(F)(F)F)c1)c1nc2ccccn2c1Cl [Compound 10]	0.0174 µM	–	–
O=S(=O)(c1ccccc1)N(Cc1ccc(OC(F)(F)F)cc1)c1cn2ccccc2n1 [Compound 12]	0.0487 µM	–	–
O=S(=O)(c1ccccc1)N(Cc1ccc(F)c(C(F)(F)F)c1)c1cn2ccccc2n1 [Compound 13]	0.0489 µM	–	–
Cc1c(N(Cc2ccc(OC(F)(F)F)cc2)S(=O)(=O)c2ccccc2)nc2cc(Cl)ccn12 [Compound 14]	0.0207 µM	–	–
Cc1c(N(Cc2ccc(F)c(C(F)(F)F)c2)S(=O)(=O)c2ccccc2)nc2cc(Cl)ccn12 [Compound 15]	0.016 µM	–	–
O=S(=O)(c1ccccc1)N(Cc1ccc(F)cc1)c1nc2ccc(Cl)cn2c1Cl [Compound 16]	0.072 µM	–	–
O=S(=O)(c1ccccc1)N(Cc1ccc(F)c(F)c1)c1nc2ccc(Cl)cn2c1Cl [Compound 18]	0.0786 µM	–	–
Cc1c(N(Cc2ccc(OC(F)(F)F)cc2)S(=O)(=O)c2ccccc2)nc2ccc(F)cn12 [Compound 19]	0.0144 µM	–	–
Cc1c(N(Cc2ccc(C(F)(F)F)c(F)c2)S(=O)(=O)c2ccccc2)nc2ccc(F)cn12 [Compound 21]	0.0106 µM and 0.0124 µM	–	–
Cc1c(N(Cc2ccc(OC(F)(F)F)cc2)S(C)(=O)=O)nc2ccc(F)cn12 [Compound 22]	–	51	–
Cc1c(N(Cc2ccc(F)c(C(F)(F)F)c2)S(C)(=O)=O)nc2ccc(F)cn12 [Compound 23]	–	58	–
O=S(=O)(c1ccccc1)N(Cc1ccc(C(F)(F)F)c(F)c1)c1nc2ccc(Cl)cn2c1Cl [Compound 29]	0.0322 µM	90	–
Cc1cccn2c(C)c(N(Cc3ccc(C(F)(F)F)cc3)S(=O)(=O)c3ccccc3)nc12 [Compound 33]	0.0267 µM	99	–
Cc1cccn2c(C)c(N(Cc3ccc(F)c(C(F)(F)F)c3)S(C)(=O)=O)nc12 [Compound 35]	0.0449 µM	74	–
Cc1c(N(Cc2ccc(OC(F)(F)F)cc2)S(=O)(=O)c2ccccc2)nc2ccc(Cl)cn12 [Compound 36]	0.0225 µM	100	–
Cc1c(N(Cc2ccc(F)c(C(F)(F)F)c2)S(=O)(=O)c2ccccc2)nc2ccc(Cl)cn12 [Compound 37]	0.0294 µM	100	–
Cc1ccc2nc(N(Cc3ccc(OC(F)(F)F)cc3)S(=O)(=O)c3ccccc3)c(C)n2c1 [Compound 39]	0.0289 µM	99	–
Cc1ccc2nc(N(Cc3ccc(F)c(C(F)(F)F)c3)S(=O)(=O)c3ccccc3)c(C)n2c1 [Compound 40]	0.0222 µM	100	–
Cc1ccc2nc(N(Cc3ccc(C(F)(F)F)c(F)c3)S(=O)(=O)c3ccccc3)c(C)n2c1 [Compound 41]	0.0253 µM	100	–
Cc1ccn2c(C)c(N(Cc3ccc(F)c(C(F)(F)F)c3)S(=O)(=O)c3ccc(Br)cc3)nc2c1 [Compound 42]	0.0254 µM	99	–
Cc1c(N(Cc2ccc(C(F)(F)F)cc2)S(=O)(=O)c2ccccc2)nc2ccc(Cl)cn12 [Compound 43]	0.0243 µM	99	–
Cc1c(N(Cc2cccc(C(F)(F)F)c2)S(=O)(=O)c2ccccc2)nc2ccc(Cl)cn12 [Compound 44]	0.0183 µM	100	–
Cc1c(N(Cc2cccc(OC(F)(F)F)c2)S(=O)(=O)c2ccccc2)nc2ccc(Cl)cn12 [Compound 45]	0.039 µM	99	–

More lines, in order of falling IC50 [1], values ahead:

IC50 [1]	inhibition at 0.2 µM [2] [%]	Structure (SMILES)	inhibition at 0.2 µM (HEK293, read-out: % Inh (%) @ 0.2 μM) [%]
0.0136 µM	–	O=S(=O)(c1ccc(F)cc1)N(Cc1ccc(OC(F)(F)F)cc1)c1nc2ccccn2c1Cl [Compound 9]	–
0.0136 µM	99	Cc1c(N(Cc2ccc(F)c(Cl)c2)S(=O)(=O)c2ccccc2)nc2ccc(Cl)cn12 [Compound 46]	–
0.0134 µM	–	O=S(=O)(c1ccccc1)N(Cc1ccc(C(F)(F)F)c(F)c1)c1cn2ccccc2n1 [Compound 24]	–
0.0133 µM	99	Cc1cccc2nc(N(Cc3ccc(C(F)(F)F)c(F)c3)S(=O)(=O)c3ccccc3)c(C)n12 [Compound 49]	–
0.0125 µM	100	Cc1cccn2c(C)c(N(Cc3ccc(C(F)(F)F)c(F)c3)S(=O)(=O)c3ccccc3)nc12 [Compound 32]	–
0.0123 µM	101	CC(C)c1c(N(Cc2ccc(F)c(C(F)(F)F)c2)S(=O)(=O)c2ccccc2)nc2ccccn12 [Compound 50]	–
0.011 µM	99	Cc1cccc2nc(N(Cc3ccc(F)c(C(F)(F)F)c3)S(=O)(=O)c3ccccc3)c(C)n12 [Compound 48]	–
0.0103 µM	101	Cc1cccn2c(C)c(N(Cc3ccc(F)c(C(F)(F)F)c3)S(=O)(=O)c3ccccc3)nc12 [Compound 31]	–
0.0101 µM	–	Cc1c(N(Cc2ccc(F)c(C(F)(F)F)c2)S(=O)(=O)c2ccccc2)nc2ccc(F)cn12 [Compound 20]	–
0.0101 µM	100	Cc1ccn2c(C)c(N(Cc3ccc(OC(F)(F)F)cc3)S(=O)(=O)c3ccccc3)nc2c1 [Compound 26]	–
0.01 µM	100	Cc1cccn2c(C)c(N(Cc3ccc(OC(F)(F)F)cc3)S(=O)(=O)c3ccccc3)nc12 [Compound 30]	–
0.00983 µM	100	Cc1cccn2c(C)c(N(Cc3cccc(C(F)(F)F)c3)S(=O)(=O)c3ccccc3)nc12 [Compound 34]	–
0.00943 µM	101	CC(C)c1c(N(Cc2ccc(OC(F)(F)F)cc2)S(=O)(=O)c2ccccc2)nc2ccccn12 [Compound 52]	–
0.00801 µM	100	Cc1ccn2c(C)c(N(Cc3ccc(F)c(C(F)(F)F)c3)S(=O)(=O)c3ccccc3)nc2c1 [Compound 28]	–
0.00792 µM	101	CC(C)c1c(N(Cc2cccc(C(F)(F)F)c2)S(=O)(=O)c2ccccc2)nc2ccccn12 [Compound 54]	–
0.00656 µM	101	CC(C)c1c(N(Cc2ccc(C(F)(F)F)c(F)c2)S(=O)(=O)c2ccccc2)nc2ccccn12 [Compound 51]	–
0.00611 µM	100	Cc1ccn2c(C)c(N(Cc3ccc(C(F)(F)F)c(F)c3)S(=O)(=O)c3ccccc3)nc2c1 [Compound 27]	–
0.00568 µM	–	Cc1c(N(Cc2ccc(OC(F)(F)F)cc2)S(=O)(=O)c2ccccc2)nc2ccccn12 [Compound 11]	–
0.0053 µM	–	O=S(=O)(c1ccccc1)N(Cc1ccc(OC(F)(F)F)cc1)c1nc2ccccn2c1Br [Compound 5]	–
0.00349 µM	–	O=S(=O)(c1ccccc1)N(Cc1ccc(C(F)(F)F)c(F)c1)c1nc2ccccn2c1Br [Compound 25]	–
0.00325 µM	–	O=S(=O)(c1ccccc1)N(Cc1ccc(F)c(C(F)(F)F)c1)c1nc2ccccn2c1Cl [Compound 1]	–
0.00319 µM	101	CC(C)c1c(N(Cc2ccc(C(F)(F)F)cc2)S(=O)(=O)c2ccccc2)nc2ccccn12 [Compound 53]	–
0.0018 µM	–	O=S(=O)(c1ccccc1)N(Cc1ccc(OC(F)(F)F)cc1)c1nc2ccccn2c1Cl [Compound 3]	–
